# In patent US20240402608A1, “METHOD FOR NON-INVASIVE PRODUCTION OF DEFINED STRUCTURES INSIDE COMPARTMENTS AND COMPARTMENT” (MAX-PLANCK-GESELLSCHAFT ZUR FÖRDERUNG DER WISSENSCHAFTEN …, priority 2021, published 2024):
# {Atto647N} = Atto 647N fluorescent dye
# Legend:
# [1] = Influx of fluorophore or ssDNA into GUVs with and without printed pore, confocal imaging; assay type: physicochemical; conditions: for influx into GUV containing a printed pore: GUV with printed hydrogel pore
# Description: Representative confocal images of two adjacent GUVs (red, λex=488 nm) in the xy-(left) and an xz-plane (right, as indicated by white dashed line) are shown in FIG. 11c. […] The scalebar in the image of the xy-plane represents 20 μm.
# Further representative confocal images of two adjacent GUVs, similar as described in FIG. 11c, are shown in FIG. 11d. […] The scalebar in the image of the xy-plane represents 20 μm.
# Next, it was tested if the pores can transport larger and charged molecular cargo.
# 0.01 mg ml-1 Rhodamine B acrylate were added to the final solution for fluorescence microscopy.
# [2] = Membrane permeability via fraction of successful printing attempts inside GUVs over time; conditions: not told
# Description: The membrane permeability was determined by adding the respective components after incubation of the GUVs with the remaining components of the photoresist and quantifying the fraction of successful printing attempts, Nprint/Ntot, inside the GUVs over time (n=30 for each condition and time point). An exponential fit (black line) was used to determine the point in time of 50% success rate.
# The resist was polymerized inside the GUV by two-photon 3D laser printing. […] The printing success rate was used as an indirect way to determine the membrane permeability of the non-fluorescent components. For this purpose, PEGDA or LAP was added to GUVs that were pre-incubated with the other resist components. Subsequently, the fraction of successful printing attempts, Npol/Ntot, was quantified for 30 GUVs per time point over the course of up to 100 minutes.
# We use the interdependence of the permeability and the concentration inside of a GUV Cin [1] to determine the membrane permeability P via printing attempts:
# where R is the GUV radius, Cout the concentration outside of the GUV and t the time.
compound,measurement,setting,value
"5′-Atto 647N TTTTTTAATTTTT 3′ (DNA, 5' {Atto647N}, backbone not given here) [13 base-long single-stranded DNA, 13 base-long single-stranded DNA labelled with Atto647N]",influx into GUV containing a printed pore,[1],can diffuse into the GUV across the printed pore
same,influx into GUV containing a printed pore,[1]; listed as single-stranded DNA,influx
same,influx into adjacent GUV without printed pore,[1]; GUV without pore,does not show DNA import
"Cc1cc(C)c(C(=O)P(=O)([O-])c2ccccc2)c(C)c1.[Li+] [LAP, Lithium phenyl-2,4,6-trimethylbenzoylphosphinate]",Papp at 12 mg mL-1,[2],0.0987 ± 0.0325 ×10⁻⁶ cm/s
